Target: (Homo sapiens, UniProt P43220)
Assay: h-GLP-1 activity assay (cAMP HTRF, HEK293 cells with stable expression of human GLP-1)
Assay type: cell-based
Conditions: relative EC50, 10 nM human GLP-1 set as 100% response, 30 min at 37° C.
In short: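 HEK293 cells stably expressing human GLP-1 receptor construct exposed to compound 30 min at 37 °C in buffer with 0.1% BSA and 0.5 mM IBMX; cAMP measured by HTRF against a cAMP standard curve. 10 nM human GLP-1 set as 100%; relative EC50 from 4-parameter fit.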

Sequence of (Homo sapiens, UniProt P43220) (P43220 24-463): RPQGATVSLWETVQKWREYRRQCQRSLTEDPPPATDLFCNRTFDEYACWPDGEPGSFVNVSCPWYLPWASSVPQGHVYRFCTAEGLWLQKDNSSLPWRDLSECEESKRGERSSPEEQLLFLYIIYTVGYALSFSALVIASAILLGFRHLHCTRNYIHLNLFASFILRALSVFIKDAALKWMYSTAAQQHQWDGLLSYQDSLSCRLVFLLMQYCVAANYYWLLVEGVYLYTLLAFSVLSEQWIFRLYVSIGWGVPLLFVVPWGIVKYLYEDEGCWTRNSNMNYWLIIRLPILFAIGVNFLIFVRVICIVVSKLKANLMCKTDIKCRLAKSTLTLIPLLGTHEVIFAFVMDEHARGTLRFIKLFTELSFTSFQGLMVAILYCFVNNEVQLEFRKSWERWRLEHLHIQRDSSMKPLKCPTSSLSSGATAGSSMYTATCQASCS

Row | Structure (SMILES) | EC50 [µM]
1 | C[C@H]1c2c(nn(-c3ccc(F)c(C4CC4)c3)c2-n2ccn(-c3ccc4c(cnn4C)c3F)c2=O)CCN1C(=O)c1cc2cc([C@@H]3CCOC(C)(C)C3)c(F)cn2c1C1(c2noc(=O)[nH]2)CC1 (single isomer, unassigned) [Compound 94] | 0.02 to 0.1
2 | C[C@H]1c2c(nn(-c3ccc(F)c(C4CC4)c3)c2-n2ccn(-c3ccc4c(cnn4C)c3F)c2=O)CCN1C(=O)c1cc2c(F)c([C@H]3CCOC(C)(C)C3)ccn2c1C1(c2noc(=O)[nH]2)CC1 (single isomer, unassigned) [Compound 95] | > 0.1
3 | C[C@H]1c2c(nn(-c3ccc(F)c(C4CC4)c3)c2-n2ccn(-c3ccc4c(cnn4C)c3F)c2=O)CCN1C(=O)c1cc2c(F)c([C@@H]3CCOC(C)(C)C3)ccn2c1C1(c2noc(=O)[nH]2)CC1 (single isomer, unassigned) [Compound 96] | < 0.02
4 | C[C@H]1c2c(nn(-c3ccc(F)c(C4CC4)c3)c2-n2ccn(-c3ccc4c(cnn4C)c3F)c2=O)CCN1C(=O)c1nc2cc([C@H]3CCOC(C)(C)C3)ccn2c1C1(c2noc(=O)[nH]2)CC1 (single isomer, unassigned) [Compound 97] | > 0.1
5 | C[C@H]1c2c(nn(-c3ccc(F)c(C4CC4)c3)c2-n2ccn(-c3ccc4c(cnn4C)c3F)c2=O)CCN1C(=O)c1nc2cc([C@@H]3CCOC(C)(C)C3)ccn2c1C1(c2noc(=O)[nH]2)CC1 (single isomer, unassigned) [Compound 98] | 0.02 to 0.1
6 | C[C@H]1c2c(nn(-c3ccc(F)c(C4CC4)c3)c2-n2ccn(-c3ccc4c(cnn4C)c3F)c2=O)CCN1C(=O)c1cc2cc([C@H]3CCOC(C)(C)C3)cnn2c1C1(c2noc(=O)[nH]2)CC1 (single isomer, unassigned) [Compound 99] | < 0.02
7 | C[C@H]1c2c(nn(-c3ccc(F)c(C4CC4)c3)c2-n2ccn(-c3ccc4c(cnn4C)c3F)c2=O)CCN1C(=O)c1cc2cc([C@@H]3CCOC(C)(C)C3)cnn2c1C1(c2noc(=O)[nH]2)CC1 (single isomer, unassigned) [Compound 100] | 0.02 to 0.1
8 | C[C@H]1c2c(nn(-c3ccc(F)c(C4CC4)c3)c2-n2ccn(-c3ccc4c(cnn4C)c3F)c2=O)CCN1C(=O)c1cc2nc([C@H]3CCOC(C)(C)C3)ccn2c1C1(c2noc(=O)[nH]2)CC1 (single isomer, unassigned) [Compound 101] | > 0.1
9 | C[C@H]1c2c(nn(-c3ccc(F)c(C4CC4)c3)c2-n2ccn(-c3ccc4c(cnn4C)c3F)c2=O)CCN1C(=O)c1cc2nc([C@@H]3CCOC(C)(C)C3)ccn2c1C1(c2noc(=O)[nH]2)CC1 (single isomer, unassigned) [Compound 102] | < 0.02
10 | Cc1cc(-n2nc3c(c2-n2ccn(-c4ccc5c(cnn5C)c4F)c2=O)[C@H](C)N(C(=O)c2cn4cc(N5CCOC(C)(C)C5)ccc4c2C2(c4noc(=O)[nH]4)CC2)CC3)cc(C)c1F [Compound 1, (S)-3-(1-(6-(2,2-dimethylmorpholino)-2-(3-(3-(4-fluoro-1-methyl-1H-indazol-5-yl)-2-oxo-2,3-dihydro-1H-imidazol-1-yl)-2-(4-fluoro-3,5-dimethylphenyl)-4-methyl-4,5,6,7-tetrahydro-2H-pyrazolo[4,3-c]pyridine-5-carbonyl)indolizin-1-yl)cyclopropyl)-1,2,4-oxadiazol-5(4H)-one] | < 0.02
11 | Cc1cc(-n2nc3c(c2-n2ccn(-c4ccc5c(cnn5C)c4F)c2=O)[C@H](C)N(C(=O)c2cn4cc(-c5ccnc(C(F)(F)F)c5)ccc4c2C2(c4noc(=O)[nH]4)CC2)CC3)cc(C)c1F [Compound 2, (S)-3-(1-(2-(3-(3-(4-fluoro-1-methyl-1H-indazol-5-yl)-2-oxo-2,3-dihydro-1H-imidazol-1-yl)-2-(4-fluoro-3,5-dimethylphenyl)-4-methyl-4,5,6,7-tetrahydro-2H-pyrazolo[4,3-c]pyridine-5-carbonyl)-6-(2-(trifluoromethyl)pyridin-4-yl)indolizin-1-yl)cyclopropyl)-1,2,4-oxadiazol-5(4H)-one] | < 0.02
12 | Cc1cc(-n2nc3c(c2-n2ccn(-c4ccc5c(cnn5C)c4F)c2=O)[C@H](C)N(C(=O)c2cn4cc(-c5ccnc(C(F)(F)F)c5)ccc4c2Cc2noc(=O)[nH]2)CC3)cc(C)c1F [Compound 15, (S)-3-((2-(3-(3-(4-fluoro-1-methyl-1H-indazol-5-yl)-2-oxo-2,3-dihydro-1H-imidazol-1-yl)-2-(4-fluoro-3,5-dimethylphenyl)-4-methyl-4,5,6,7-tetrahydro-2H-pyrazolo[4,3-c]pyridine-5-carbonyl)-6-(2-(trifluoromethyl)pyridin-4-yl)indolizin-1-yl)methyl)-1,2,4-oxadiazol-5(4H)-one] | < 0.02
13 | Cc1cc(-n2nc3c(c2-n2ccn(-c4ccc5c(cnn5C)c4F)c2=O)CN(C(=O)c2cc4cc(C5CCOCC5)ccc4n2-c2ccccc2-c2noc(=O)[nH]2)CC3)cc(C)c1F [Compound 37, 3-(2-(2-(3-(3-(4-fluoro-1-methyl-1H-indazol-5-yl)-2-oxo-2,3-dihydro-1H-imidazol-1-yl)-2-(4-fluoro-3,5-dimethylphenyl)-4,5,6,7-tetrahydro-2H-pyrazolo[4,3-c]pyridine-5-carbonyl)-5-(tetrahydro-2H-pyran-4-yl)-1H-indol-1-yl)phenyl)-1,2,4-oxadiazol-5(4H)-one] | > 0.1
14 | Cn1ncc2c(F)c(-n3ccn(-c4c(-c5ccc(F)cc5)nn5c4CN(C(=O)c4cc6cc(C7CCOCC7)ccc6n4-c4ccccc4C(=O)O)CC5)c3=O)ccc21 [Compound 55, 2-(2-(3-(3-(4-fluoro-1-methyl-1H-indazol-5-yl)-2-oxo-2,3-dihydro-1H-imidazol-1-yl)-2-(4-fluorophenyl)-4,5,6,7-tetrahydropyrazolo[1,5-a]pyrazine-5-carbonyl)-5-(tetrahydro-2H-pyran-4-yl)-1H-indol-1-yl)benzoic acid] | > 0.1
15 | Cc1cc(-n2nc3c(c2-n2ccn(-c4ccc5c(cnn5C)c4F)c2=O)[C@H](C)N(C(=O)c2cc4cc(C5CCOCC5)ccc4n2-c2cccc(C(=O)O)c2)CC3)cc(C)c1F [Compound 56, (S)-3-(2-(3-(3-(4-fluoro-1-methyl-1H-indazol-5-yl)-2-oxo-2,3-dihydro-1H-imidazol-1-yl)-2-(4-fluoro-3,5-dimethylphenyl)-4-methyl-4,5,6,7-tetrahydro-2H-pyrazolo[4,3-c]pyridine-5-carbonyl)-5-(tetrahydro-2H-pyran-4-yl)-1H-indol-1-yl)benzoic acid] | < 0.02
16 | COCc1ccc(-n2ccn(-c3c4c(nn3-c3cc(C)c(F)c(C)c3)CCN(C(=O)c3cc5cc(C6CCOCC6)ccc5n3-c3ccccc3C(=O)O)[C@H]4C)c2=O)cc1 [Compound 57, (S)-2-(2-(2-(4-fluoro-3,5-dimethylphenyl)-3-(3-(4-(methoxymethyl)phenyl)-2-oxo-2,3-dihydro-1H-imidazol-1-yl)-4-methyl-4,5,6,7-tetrahydro-2H-pyrazolo[4,3-c]pyridine-5-carbonyl)-5-(tetrahydro-2H-pyran-4-yl)-1H-indol-1-yl)benzoic acid] | > 0.1
17 | Cc1cc(-c2ccc3c(c2)cc(C(=O)N2CCn4nc(-c5ccc(F)cc5)c(-n5ccn(-c6ccc7c(cnn7C)c6F)c5=O)c4C2)n3Cc2noc(=O)[nH]2)ccn1 [Compound 58, 3-((2-(3-(3-(4-fluoro-1-methyl-1H-indazol-5-yl)-2-oxo-2,3-dihydro-1H-imidazol-1-yl)-2-(4-fluorophenyl)-4,5,6,7-tetrahydropyrazolo[1,5-a]pyrazine-5-carbonyl)-5-(2-methylpyridin-4-yl)-1H-indol-1-yl)methyl)-1,2,4-oxadiazol-5(4H)-one] | < 0.02
18 | Cc1cc(-n2nc3c(c2-n2ccn(-c4ccc5c(cnn5C)c4F)c2=O)CN(C(=O)c2cc4cc(C5CCOCC5)ccc4n2-c2cccc4[nH]nnc24)CC3)cc(C)c1F [Compound 59, 1-(5-(1-(1H-benzo[d][1,2,3]triazol-4-yl)-5-(tetrahydro-2H-pyran-4-yl)-1H-indole-2-carbonyl)-2-(4-fluoro-3,5-dimethylphenyl)-4,5,6,7-tetrahydro-2H-pyrazolo[4,3-c]pyridin-3-yl)-3-(4-fluoro-1-methyl-1H-indazol-5-yl)-1,3-dihydro-2H-imidazol-2-one] | > 0.1
